# Experimental data from patent US20130064812A1, “COMBINATION THERAPIES FOR HEMATOLOGIC MALIGNANCIES” (Gilead Calistoga LLC, priority 2011, published 2013).
# Legend:
# [1] = tested on: IGROV-1 and OVCAR-3 cell lines; assay: Proliferation of ovarian cancer cell lines (AlamarBlue); format: cell-based; conditions: IGROV-1, OVCAR-3, 48 hrs and 72 hrs
# Method: IGROV-1 and OVCAR-3 cell lines were grown in the presence of serum plus the indicated concentrations of the compound of formula I. Proliferation was measured in triplicate wells by AlamarBlue assay (Invitrogen) 96-well plates.
# [2] = tested on: CLL cells co-cultured with MSCs; assay: CLL cells co-cultured with marrow stromal cells (MSC), DiOC6/PI viability; conditions: compound 5 μM; bendamustine, fludarabine, dexamethasone 10 μM
# From the text: The viable cell population was characterized by bright DiOC6 staining and PI exclusion, and was gated in the lower right corner of each contour plot.
# Viabilities of drug-treated samples were normalized to the viabilities of control samples at the respective timepoints (100%).
# mTOR = mTOR (Homo sapiens, UniProt P42345); assay: InvitroGen Adapta kinase assay, mTOR; format: biochemical
# LB cells = assay: LB cell proliferation with or without BMSCs ([3H]-thymidine uptake); format: cell-based, human; conditions: 0.625 μM-10 μM, 48 hours, presence of BMSC
# Method: Cell proliferation was assessed using [^3H]-thymidine uptake assay. All data represent mean (±SD) of triplicate experiment.
structure (smiles),measurement,setting,value
"CC[C@H](Nc1ncnc2[nH]cnc12)c1nc2cccc(F)c2c(=O)n1-c1ccccc1 [Compound I, 5-fluoro-3-phenyl-2-[1-(9H-purin-6-ylamino)-propyl]-3H-quinazolin-4-one]",proliferation of ovarian cancer cell lines,[1],cytotoxic to two ovarian cancer cell lines
same,proliferation of ovarian cancer cell lines,[1]; listed as compound of formula I,inhibits proliferation of ovarian cancer cell lines
same,CLL cell death / survival in co-culture with MSC,[2],sensitized CLL cells to the cytotoxic agents
same,IC50,mTOR,> 1000 nM
same,LB cell growth,LB cells,LB cell growth is reduced
